Columns and labels:
[1] = target: T1, Muscarinic acetylcholine receptor M1 (Homo sapiens, UniProt P11229); test: Binding affinity towards human muscarinic M1 receptor in CHO-KI cells using [3H]- QNB as radioligand; format: cell-based
T1 sequence (P11229 whole entry): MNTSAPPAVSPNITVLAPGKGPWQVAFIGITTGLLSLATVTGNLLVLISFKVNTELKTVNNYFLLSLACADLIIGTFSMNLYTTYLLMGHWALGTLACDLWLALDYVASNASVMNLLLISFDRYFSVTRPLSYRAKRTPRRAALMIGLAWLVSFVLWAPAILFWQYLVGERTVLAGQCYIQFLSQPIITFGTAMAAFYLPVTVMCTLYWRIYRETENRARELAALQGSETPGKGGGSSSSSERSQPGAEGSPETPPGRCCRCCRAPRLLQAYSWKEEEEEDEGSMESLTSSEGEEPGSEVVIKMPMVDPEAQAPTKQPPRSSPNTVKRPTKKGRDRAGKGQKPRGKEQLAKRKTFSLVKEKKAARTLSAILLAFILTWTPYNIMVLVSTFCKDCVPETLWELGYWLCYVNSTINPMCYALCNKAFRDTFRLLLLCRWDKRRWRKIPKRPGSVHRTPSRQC

[2] = target: T2, Muscarinic acetylcholine receptor M2 (Homo sapiens, UniProt P08172); test: Binding affinity towards human muscarinic M2 receptor in CHO-KI cells using [3H]- QNB as radioligand; format: cell-based
T2 sequence (P08172 whole entry): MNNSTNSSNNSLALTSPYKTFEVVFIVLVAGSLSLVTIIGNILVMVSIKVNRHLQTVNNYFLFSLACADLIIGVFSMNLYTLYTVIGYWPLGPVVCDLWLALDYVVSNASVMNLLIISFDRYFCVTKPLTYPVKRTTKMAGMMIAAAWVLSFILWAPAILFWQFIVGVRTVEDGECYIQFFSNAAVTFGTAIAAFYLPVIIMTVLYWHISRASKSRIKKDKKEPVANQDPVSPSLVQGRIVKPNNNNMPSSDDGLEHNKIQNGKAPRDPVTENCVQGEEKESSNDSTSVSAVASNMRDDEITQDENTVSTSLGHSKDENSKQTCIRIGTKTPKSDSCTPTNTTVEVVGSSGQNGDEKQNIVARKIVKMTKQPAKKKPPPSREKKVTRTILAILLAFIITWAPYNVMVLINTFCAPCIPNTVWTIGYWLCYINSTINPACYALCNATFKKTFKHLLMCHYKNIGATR

Row | Structure (SMILES) | Ki [1] | Ki [2]
1 | C[C@@H]1OC(=O)[C@H]2C[C@H]3CCCC[C@@H]3[C@@H](CCCN3CCC(O)CC3)[C@@H]12 | > 900 nM | > 280 nM
2 | C[C@@H]1CN(CCC[C@@H]2[C@H]3CCCC[C@@H]3C[C@@H]3C(=O)O[C@@H](C)[C@H]23)CCN1 | 857 nM | > 500 nM
3 | C[C@@H]1OC(=O)[C@H]2C[C@H]3CCCC[C@@H]3[C@@H](/C=C/[C@H]3CCC[C@H](C)N3C)[C@@H]12 [HIMBACINE] | 4.5 nM | 48.4 nM
4 | C[C@@H]1OC(=O)[C@H]2C[C@H]3CCCC[C@@H]3[C@@H](CCCN3CCNCC3)[C@@H]12 | > 420 nM | > 42 nM
5 | C[C@@H]1OC(=O)[C@H]2C[C@H]3CCCC[C@@H]3[C@@H](CCCN3CCN[C@@H](C)C3)[C@@H]12 | 581 nM | > 500 nM
6 | CC1CCN(CCC[C@@H]2[C@H]3CCCC[C@@H]3C[C@@H]3C(=O)O[C@@H](C)[C@H]23)CC1 | 554 nM | 283 nM
7 | C[C@@H]1OC(=O)[C@H]2C[C@H]3CCCC[C@@H]3[C@@H](CC[C@H]3CCC[C@H](C)N3C)[C@@H]12 | 4.3 nM | 32.2 nM
8 | C[C@@H]1OC(=O)[C@H]2C[C@H]3CCCC[C@@H]3[C@@H](CCCN3CCN(C)CC3)[C@@H]12 | 579 nM | 595 nM
9 | C[C@@H]1OC(=O)[C@H]2C[C@H]3CCCC[C@@H]3[C@@H](CCCN3CCCC(O)C3)[C@@H]12 (stereo not given in full) | 1530 nM | 148 nM
10 | CC1CN(CCC[C@@H]2[C@H]3CCCC[C@@H]3C[C@@H]3C(=O)O[C@@H](C)[C@H]23)CC(C)O1 (stereo not given in full) | 601 nM | 376 nM
11 | CC1CN(CCC[C@@H]2[C@H]3CCCC[C@@H]3C[C@@H]3C(=O)O[C@@H](C)[C@H]23)CC(C)N1 (stereo not given in full) | 1360 nM | > 500 nM

More lines, now with the values ahead:

Row | Ki [1] | Ki [2] | Structure (SMILES)
12 | 136 nM | 26 nM | C[C@@H]1OC(=O)[C@H]2C[C@H]3CCCC[C@@H]3[C@@H](CCCNC34CC5CC(CC(C5)C3)C4)[C@@H]12
13 | 376 nM | 312 nM | CC1CCCN(CCC[C@@H]2[C@H]3CCCC[C@@H]3C[C@@H]3C(=O)O[C@@H](C)[C@H]23)C1 (stereo not given in full)
14 | 464 nM | 520 nM | C[C@@H]1OC(=O)[C@H]2C[C@H]3CCCC[C@@H]3[C@@H](CCCN3CCN(C4CCCCC4)CC3)[C@@H]12
15 | 399 nM | 275 nM | CC1CCCCN1CCC[C@@H]1[C@H]2CCCC[C@@H]2C[C@@H]2C(=O)O[C@@H](C)[C@H]12 (stereo not given in full)
16 | 445 nM | 485 nM | C[C@@H]1OC(=O)[C@H]2C[C@H]3CCCC[C@@H]3[C@@H](CCCN3CCN(C(=O)OC(C)(C)C)CC3)[C@@H]12
17 | 341 nM | 209 nM | CCC1CCCCN1CCC[C@@H]1[C@H]2CCCC[C@@H]2C[C@@H]2C(=O)O[C@@H](C)[C@H]12 (stereo not given in full)
18 | 427 nM | 352 nM | C[C@@H]1OC(=O)[C@H]2C[C@H]3CCCC[C@@H]3[C@@H](CCCN3CCCCC3)[C@@H]12
19 | 416 nM | 224 nM | C[C@@H]1OC(=O)[C@H]2C[C@H]3CCCC[C@@H]3[C@@H](CCCN3CCCC(C)(C)C3)[C@@H]12
20 | 222 nM | 51 nM | C[C@@H]1OC(=O)[C@H]2C[C@H]3CCCC[C@@H]3[C@@H](CCCN3CCOCC3)[C@@H]12
21 | 304 nM | 184 nM | C[C@@H]1OC(=O)[C@H]2C[C@H]3CCCC[C@@H]3[C@@H](CCCN3CCc4ccccc4C3)[C@@H]12
22 | 179 nM | 189 nM | C[C@@H]1OC(=O)[C@H]2C[C@H]3CCCC[C@@H]3[C@@H](CCCN3CCSCC3)[C@@H]12
23 | 353 nM | 570 nM | CC1CN(CCC[C@@H]2[C@H]3CCCC[C@@H]3C[C@@H]3C(=O)O[C@@H](C)[C@H]23)C(C)CN1 (stereo not given in full)
24 | 312 nM | 650 nM | C[C@@H]1OC(=O)[C@H]2C[C@H]3CCCC[C@@H]3[C@@H](CCCN3CCC(N4CCCCC4)CC3)[C@@H]12
25 | 38 nM | 13 nM | C[C@@H]1OC(=O)[C@H]2C[C@H]3CCCC[C@@H]3[C@@H](CCCN3CCCC4CCCCC43)[C@@H]12 (stereo not given in full)

— ChEMBL document CHEMBL1132081, “Design, synthesis, and structure-activity relationship studies of himbacine derived muscarinic receptor antagonists” (Bioorg Med Chem Lett, 1999)
